# From patent publication US20060275339A1, “Use of antiseptic active principles in pmma bone cements” (Biomet Deutschland, priority 2003, published 2006)
# Tested on: germs
# Assay: Prevention of colonisation of the PMMA bone cement surface with germs (FIGS. 1a and 1b)
# Format: cell-based
# Details: 0.155% by weight admixed with PMMA bone cement (PALAMED plain); compared with admixing of 0.86% by weight of gentamicin
substance,measurement,value
polyhexamethylenebiguanide,biological efficacy in preventing colonisation of the cement surface with germs,same (or higher) biological efficacy
